# Target: T1, CFTR (primary human bronchial epithelial cells from a ΔF508 homozygous CF donor, CF-HBE cells) (Homo sapiens, UniProt P13569, DEL508-508)
# T1 construct: Primary human bronchial epithelial cells from a ΔF508 homozygous CF donor; host or cells: primary human bronchial epithelial cells (CF-HBE) from a ΔF508 homozygous CF donor
# Test: TECC24 recording of CFTR-mediated transepithelial chloride transport (TECC24 AUC fold over DMSO @ 3 μM)
# Assay type: cell-based
# Conditions: 3 uM test agent; CF-HBE cells (ΔF508 homozygous) incubated 48 h; ratio of test agent AUC of forskolin-stimulated IEQ to vehicle (DMSO) AUC
# Description: Example 510: TECC24 AUC Fold Over DMSO @ 3 μM
# The effects of a test agent on CFTR-mediated transepithelial chloride transport was measured using TECC24 recording analysis. Test agents were solubilized in DMSO. Solubilized test agents were mixed with incubation medium containing DMEM/F12, Ultroser G (2%; Crescent Chemical, catalog #67042), Hyclone Fetal Clone H (2%; GE Healthcare, catalog #SH30066.02), bovine brain extract (0.25%; Lonza, catalog #CC-4098), insulin (2.5 μg/mL), IL-13 (10 ng/mL), hydrocortisone (20 nM), transferrin (2.5 μg/mL), triiodothyronine (500 nM), ethanolamine (250 nM), epinephrine (1.5 μM), phosphoethanolamine (250 nM), and retinoic acid (10 nM). Primary human bronchial epithelial cells from a ΔF508 homozygous CF donor (CF-HBE cells; from University of North Carolina Cystic Fibrosis Tissue Procurement Center), grown on Transwell HTS 24-well cell culture inserts (Costar, catalog #3378), were exposed to test agents or controls dissolved in incubation medium. The CF-HBE cells were cultured at 36.5° C. for 48 h before TECC24 recordings were performed in the presence or absence of test agent, a positive control or vehicle (DMSO).
# Following incubation, the transwell cell culture inserts containing the test agent or control-treated CF-HBE cells were loaded onto a TECC24 apparatus (TECC v7 or MTECC v2; EP Design) to record the transepithelial voltage (VT) and resistance (TEER) using 4 AgCl electrodes per well configured in current-clamp mode. The apical and basolateral bath solutions both contained (in mM) 140 NaCl, 5 KCl, 2 CaCl2), 1 MgCl2, 10 Hepes, and 10 glucose (adjusted to pH 7.4 with NaOH) […]. To inhibit basal Na+ absorption, the ENaC inhibitor benzamil (10 μM) was added to the bath. Then, the adenylate cyclase activator, forskolin (10 μM), was added to the bath to activate CFTR. The forskolin-stimulated Cl− transport was halted by addition of bumetanide (20 μM), an inhibitor of the basolateral chloride co-transporter NKCC1, to the bath to confirm that the detected signal was chloride dependent. VT and TEER recordings were digitally acquired at routine intervals using TECC or MTECC software (EP Design). VT and TEER were transformed into equivalent transepithelial Cl− current (IEQ), and the Area Under the Curve (AUC) of the IEQ time course between forskolin and bumetanide addition is generated using Excel (Microsoft). Efficacy is expressed as the ratio of the test agent AUC divided by vehicle AUC. EC50s based on AUC are generated using the non-linear regression log(agonist) vs. response function in Prism software (GraphPad) with Hill Slope fixed=1.
# If a test agent increased the AUC of the forskolin-stimulated IEQ relative to vehicle in CF-HBE cells, and this increase was inhibited by bumetanide, then the test agent was considered a CFTR corrector.
# T1 sequence (P13569 with tags, fused parts or gaps DEL508-508): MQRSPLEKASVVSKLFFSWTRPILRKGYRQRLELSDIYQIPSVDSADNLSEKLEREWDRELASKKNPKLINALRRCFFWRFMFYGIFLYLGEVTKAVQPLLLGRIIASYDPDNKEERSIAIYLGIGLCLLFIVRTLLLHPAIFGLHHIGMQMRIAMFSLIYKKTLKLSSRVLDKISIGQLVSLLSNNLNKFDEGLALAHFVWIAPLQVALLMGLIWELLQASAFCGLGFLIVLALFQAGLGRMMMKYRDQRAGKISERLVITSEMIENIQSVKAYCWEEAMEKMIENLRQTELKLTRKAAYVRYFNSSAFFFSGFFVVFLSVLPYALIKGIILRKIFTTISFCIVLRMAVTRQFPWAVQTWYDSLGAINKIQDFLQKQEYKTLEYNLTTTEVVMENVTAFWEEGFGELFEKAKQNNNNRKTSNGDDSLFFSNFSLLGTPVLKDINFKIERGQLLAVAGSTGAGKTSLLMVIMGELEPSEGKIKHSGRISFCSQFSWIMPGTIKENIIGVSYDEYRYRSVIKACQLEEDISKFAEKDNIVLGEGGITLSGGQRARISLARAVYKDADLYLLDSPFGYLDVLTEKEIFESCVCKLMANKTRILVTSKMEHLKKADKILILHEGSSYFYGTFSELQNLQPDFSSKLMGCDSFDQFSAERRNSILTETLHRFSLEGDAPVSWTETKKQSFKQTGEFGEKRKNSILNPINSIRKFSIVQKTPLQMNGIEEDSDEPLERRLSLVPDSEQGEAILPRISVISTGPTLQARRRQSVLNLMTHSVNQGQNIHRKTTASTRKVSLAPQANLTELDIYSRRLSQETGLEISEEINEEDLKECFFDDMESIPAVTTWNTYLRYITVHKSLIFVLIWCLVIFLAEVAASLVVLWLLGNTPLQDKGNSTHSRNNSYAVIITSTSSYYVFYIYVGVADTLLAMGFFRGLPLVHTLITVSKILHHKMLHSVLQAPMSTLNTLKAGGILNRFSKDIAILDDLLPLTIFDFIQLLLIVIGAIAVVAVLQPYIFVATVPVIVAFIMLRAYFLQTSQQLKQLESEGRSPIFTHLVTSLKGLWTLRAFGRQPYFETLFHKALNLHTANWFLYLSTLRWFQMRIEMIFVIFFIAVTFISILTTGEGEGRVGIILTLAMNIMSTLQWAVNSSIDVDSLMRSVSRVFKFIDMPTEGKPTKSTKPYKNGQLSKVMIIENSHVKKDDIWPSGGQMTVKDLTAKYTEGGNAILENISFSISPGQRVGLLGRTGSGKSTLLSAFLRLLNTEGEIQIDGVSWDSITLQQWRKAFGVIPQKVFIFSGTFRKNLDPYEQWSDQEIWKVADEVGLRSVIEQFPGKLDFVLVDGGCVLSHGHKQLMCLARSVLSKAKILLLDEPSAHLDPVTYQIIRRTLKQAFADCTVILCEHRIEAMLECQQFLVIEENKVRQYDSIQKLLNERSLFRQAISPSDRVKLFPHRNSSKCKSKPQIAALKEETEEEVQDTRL
row,Compound,TECC AUC vs. DMSO @ 3 uM
1,"Cc1cccc(C)c1-c1nc(NS(=O)(=O)c2cccc(-c3ccn[nH]3)c2)sc1-c1cccc(OC2CCC(C)(C)C2)c1 (centres unmarked) [Example 29, N-(5-(3-((3,3-Dimethylcyclopentyl)oxy)phenyl)-4-(2,6-dimethylphenyl)thiazol-2-yl)-3-(1H-pyrazol-5-yl)benzenesulfonamide]",A (“A” refers to AUC > 5)
2,"Cc1cccc(C)c1-c1nc(NS(=O)(=O)c2cccc(N(C)C)n2)sc1-c1cc(F)cc(OCCC(C)(C)C)c1 [Example 240, 6-(dimethylamino)-N-[5-[3-(3,3-dimethylbutoxy)-5-fluorophenyl]-4-(2,6-dimethylphenyl)-1,3-thiazol-2-yl]pyridine-2-sulfonamide]",A (“A” refers to AUC > 5)
3,"Cc1cccc(C)c1-c1nc(NS(=O)(=O)c2cccc(-n3cccn3)c2)sc1-c1cccc(OC2CCC(C)(C)C2)c1 (centres unmarked) [Example 28, N-(5-(3-((3,3-Dimethylcyclopentyl)oxy)phenyl)-4-(2,6-dimethylphenyl)thiazol-2-yl)-3-(1H-pyrazol-1-yl)benzenesulfonamide]",A (“A” refers to AUC > 5)
4,"CNc1cccc(S(=O)(=O)Nc2nc(-c3c(C)cccc3C)c(-c3cccc(OCCC(C)(C)C)c3)s2)c1 [Example 27, N-(5-(3-(3,3-Dimethylbutoxy)phenyl)-4-(2,6-dimethylphenyl)thiazol-2-yl)-3-(methylamino)benzenesulfonamide]",A (“A” refers to AUC > 5)
5,"CC(C)c1ccccc1-c1nc(NS(=O)(=O)c2ccccc2)sc1-c1cc(F)cc(OCCC(C)(C)C)c1 [Example 3, N-(5-(3-(3,3-Dimethylbutoxy)-5-fluorophenyl)-4-(2-isopropylphenyl)thiazol-2-yl)benzenesulfonamide]",A (“A” refers to AUC > 5)
6,"Cc1cccc(OC(C)C)c1-c1nc(NS(=O)(=O)c2ccnc(N)c2)sc1-c1cc(F)cc(OCCC(C)(C)C)c1 [Example 34, 2-Amino-N-(5-(3-(3,3-dimethylbutoxy)-5-fluorophenyl)-4-(2-isopropoxy-6-methylphenyl)thiazol-2-yl)pyridine-4-sulfonamide]",A (“A” refers to AUC > 5)
7,"CC(C)(C)CCOc1cccc(-c2sc(NS(=O)(=O)c3cccc(NC(=O)C4(F)CC4)c3)nc2-c2ccccc2C(F)(F)F)c1 [Example 20, N-(3-(N-(5-(3-(3,3-Dimethylbutoxy)phenyl)-4-(2-(trifluoromethyl)phenyl)thiazol-2-yl)sulfamoyl)phenyl)-1-fluorocyclopropane-1-carboxamide]",A (“A” refers to AUC > 5)
8,"CC(C)c1ccccc1-c1nc(NS(=O)(=O)c2cccc(NC3CC(C)(O)C3)c2)sc1-c1ccc(F)c(OCC(F)(F)C(C)(C)C)c1 (centres unmarked) [Example 24, N-(5-(3-(2,2-Difluoro-3,3-dimethylbutoxy)-4-fluorophenyl)-4-(2-isopropylphenyl)thiazol-2-yl)-3-((3-hydroxy-3-methylcyclobutyl)amino)benzenesulfonamide]",A (“A” refers to AUC > 5)
9,"Cc1nn(C)cc1S(=O)(=O)Nc1nc(-c2ccccc2C(F)(F)F)c(-c2cccc([C@H]3CC[C@@H](OC(F)(F)F)C3)c2)s1 (single isomer, unassigned) [Example 45A1]",B (“B” refers to AUC 2-5)
10,"Cc1cccc(C)c1-c1nc(NS(=O)(=O)c2ccccc2)sc1-c1cc(F)cc(OCCC(C)(C)C)c1 [Example 17, N-(5-(3-(3,3-Dimethylbutoxy)-5-fluorophenyl)-4-(2,6-dimethylphenyl)thiazol-2-yl)benzenesulfonamide]",B (“B” refers to AUC 2-5)
11,"Nc1cccc(S(=O)(=O)Nc2nc(-c3ccccc3C(F)(F)F)c(-c3cccc([C@H]4CC[C@@H](OC(F)(F)F)C4)c3)s2)c1F (single isomer, unassigned) [Example 47A1]",C (“C” refers to AUC < 2)
12,"Cc1cccc(C)c1-c1nc(NS(=O)(=O)c2cccc(N(C)C)n2)sc1-c1cccc(C2CCC(C)(C)C2)c1 (centres unmarked) [Example 342, 6-(dimethylamino)-N-[5-[3-(3,3-dimethylcyclopentyl)phenyl]-4-(2,6-dimethylphenyl)-1,3-thiazol-2-yl]pyridine-2-sulfonamide]",A (“A” refers to AUC > 5)
13,"Cc1cccc(C)c1-c1nc(NS(=O)(=O)c2cccc(N)n2)sc1-c1cc(F)cc(OCCC(C)(C)C)c1 [Example 31, 6-Amino-N-(5-(3-(3,3-dimethylbutoxy)-5-fluorophenyl)-4-(2,6-dimethylphenyl)thiazol-2-yl)pyridine-2-sulfonamide]",A (“A” refers to AUC > 5)
14,"Cc1cccc(C)c1-c1nc(NS(=O)(=O)c2ccccc2)sc1C1=CC(CC(C)(C)C)OCC1 (centres unmarked) [Example 370, N-[4-(2,6-dimethylphenyl)-5-[6-(2,2-dimethylpropyl)-3,6-dihydro-2H-pyran-4-yl]-1,3-thiazol-2-yl]benzenesulfonamide]",A (“A” refers to AUC > 5)
15,"Nc1cccc(S(=O)(=O)Nc2nc(-c3ccccc3C(F)(F)F)c(-c3cccc([C@@H]4CC[C@@H](OC(F)(F)F)C4)c3)s2)c1F [Example 47B2, 3-Amino-2-fluoro-N-(5-(3-((1R,3R)-3-(trifluoromethoxy)cyclopentyl)phenyl)-4-(2-(trifluoromethyl)phenyl)thiazol-2-yl)benzenesulfonamide]",C (“C” refers to AUC < 2)
16,"Cc1cccc(C)c1-c1nc(NS(=O)(=O)c2cccc(S(C)(=O)=O)c2)sc1-c1cc(F)cc(OCCC(C)(C)C)c1 [Example 242, N-[5-[3-(3,3-dimethylbutoxy)-5-fluorophenyl]-4-(2,6-dimethylphenyl)-1,3-thiazol-2-yl]-3-methylsulfonylbenzenesulfonamide]",A (“A” refers to AUC > 5)
17,"Cc1cccc(C)c1-c1nc(NS(=O)(=O)c2cccc(N)c2F)sc1-c1cc(F)cc(OCCC(C)(C)C)c1 [Example 25, 3-Amino-N-(5-(3-(3,3-dimethylbutoxy)-5-fluorophenyl)-4-(2,6-dimethylphenyl)thiazol-2-yl)-2-fluorobenzenesulfonamide]",A (“A” refers to AUC > 5)
18,"Cc1cccc(C)c1-c1nc(NS(=O)(=O)c2ccccc2)sc1N1C[C@H](OC(C)(C)C)C[C@H]1C [Example 402, N-[4-(2,6-dimethylphenyl)-5-[(2R,4R)-2-methyl-4-[(2-methylpropan-2-yl)oxy]pyrrolidin-1-yl]-1,3-thiazol-2-yl]benzenesulfonamide]",A (“A” refers to AUC > 5)
19,"Cc1cccc(C)c1-c1nc(NS(=O)(=O)c2cccnc2N)sc1-c1cc(F)cc(OCCC(C)(C)C)c1 [Example 35, 2-Amino-N-(5-(3-(3,3-dimethylbutoxy)-5-fluorophenyl)-4-(2,6-dimethylphenyl)thiazol-2-yl)pyridine-3-sulfonamide]",A (“A” refers to AUC > 5)
20,"CC(C)Oc1cc(Cl)ccc1-c1nc(NS(=O)(=O)c2ccccc2)sc1-c1ccc(OC(F)F)c(OCCC(C)(C)C)c1 [Example 380, N-[4-(4-chloro-2-propan-2-yloxyphenyl)-5-[4-(difluoromethoxy)-3-(3,3-dimethylbutoxy)phenyl]-1,3-thiazol-2-yl]benzenesulfonamide]",A (“A” refers to AUC > 5)

# Source: patent publication US20240002374A1, “5-MEMBERED HETEROARYLAMINOSULFONAMIDES FOR TREATING CONDITIONS MEDIATED BY DEFICIENT CFTR ACTIVITY” (Genzyme Corporation, priority 2019, published 2024)
